Results on 41 molecules are retold here after PMC11989179, “Odor-Binding Protein 2 in Apis mellifera ligustica Plays Important Roles in the Response to Floral Volatiles Stimuli from Melon and Tomato Flowers” (International Journal of Molecular Sciences, 2025).

The target in data set [1] is T1, AmelOBP2 (Apis mellifera, UniProt A0A8U0WQ64). Put plainly: Fluorescence competitive binding assay with 1-NPN as probe. Further details: species or system Apis mellifera ligustica. Particulars: for Ki: Ki = [IC50]/(1 + [1-NPN]/K1-NPN), read-out: Ki (binding constant); for IC50: odor standard concentration at which AmelOBP2/1-NPN fluorescence is reduced to half; for binding ability to AmelOBP2 (in words): fluorescence competitive binding. As to the method: The binding ability of the recombinant protein AmelOBP2 to the 14 tomato and 25 melon floral volatiles was determined using a fluorescence competitive binding assay. The IC50 values of the odor standard compounds obtained from the fluorescence competitive binding curve (Figure 6) and the binding constant Ki between AmelOBP2 and the odor standard compounds are shown in Table 1.
T1 sequence (A0A8U0WQ64 entry or part of it): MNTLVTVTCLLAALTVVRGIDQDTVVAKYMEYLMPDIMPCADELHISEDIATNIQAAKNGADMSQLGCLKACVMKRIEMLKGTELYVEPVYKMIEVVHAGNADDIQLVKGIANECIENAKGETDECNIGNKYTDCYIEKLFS
(§1) The ability of AmelOBP2 to bind to floral volatiles in tomato and melon greenhouses was determined using an RF-5301PC fluorescence spectrophotometer (Shimadzu, Japan) with […] (1-NPN) (TCI, Japan) as the fluorescence probe (Table A5). The parameters of the RF-5301PC fluorescence spectrophotometer are set as follows: the emission wavelength range is 360–500 nm, the excitation wavelength is 337 nm, and the slit width is 3 nm. This process was similar to that described by Du et al.. Data were processed using GraphPad Prism 8.0. The binding constant (Ki) of AmelOBP2 and odor volatiles were computed using the following equation [26]:Ki = [IC50]/(1 + [1-NPN]/K1-NPN)
IC50 refers to the concentration of the odorant at which the fluorescence intensity of the AmelOBP2/1-NPN complex was reduced by 50%. 1-NPN refers to the concentration of unbound 1-NPN, while K1-NPN refers to the binding constant of the AmelOBP2/1-NPN complex. The smaller the Ki, the stronger the binding ability of the substance to the recombinant protein. Ki values ranging from 0 to 5µM indicate strong binding ability with AmelOBP2.

The target in data set [2] is T1, AmelOBP2. Put plainly: Binding curve and Scatchard plot of fluorescence probe 1-NPN to recombinant AmelOBP2. Particulars: Scatchard plot; excitation 337 nm, emission maximum 405 nm; read-out: binding constant between AmelOBP2 and the probe. Further details: species or system Apis mellifera ligustica. As for the experimental part:
At an excitation wavelength of 337 nm, no clear fluorescence signal was observed from the AmelOBP2 protein working solution. By adding 3 μL of the 1-NPN solution to the protein working solution successively, the maximum fluorescence intensity was found at 405 nm, and the fluorescence intensity increased with the increase in the probe concentration. The resulting data were then fitted using regression and Scatchard processing to produce a combination curve and linear equation for AmelOBP2 and 1-NPN (Figure 5).
as §1

The test system of data set [3] is Apis mellifera ligustica antennae. The experiment in a line: Electroantennogram (EAG) response to compounds under RNAi silencing. Particulars: decrease of EAG response in honeybees fed siAmelOBP2. It counts as in vivo. Further details: concentration or dose not given beside the values. From the text: To clarify the physiological function of amelobp2 in the detection of floral volatiles in honeybees, we selected the following five volatiles: e-2-hexenal, e-2-octenal, 1-nonanal, 2-methyl-5-(1-methyl ethenyl)-cyclohexanone, and methyl benzene. Specifically, e-2-hexenal and e-2-octenal are volatiles of melon flowers; 2-methyl-5-(1-methyl ethenyl)-cyclohexanone and methyl benzene are volatiles of tomato flowers; and 1-nonanal is both a melon flower volatile and a tomato flower volatile. The antennal electrical activity of the honeybees was measured after feeding with siAmelOBP2.
Based on the results of the fluorescence competitive binding tests and our previous research involving EAG tests, odor-standard compounds were identified for testing (Table A5). The optimal siRNA and silencing time were determined by an experiment and fed to honeybees. The EAG response was measured using an EAG insect antennal potential measurement system (Syntech, Netherlands). Each measurement was repeated using three antennae. The results of the antennal potential measurements were expressed as the EAG relative response value (rEAG), which was calculated as follows:rEAG = (EAG (X) − EAG (std))/EAG (std)(1)
EAG (X) represents the response amplitude (mV) of the EAG to a given compound, while EAG (std) represents the response amplitude (mV) of the EAG to the reference liquid paraffin at each recording stage.

Data set [4] relates to AmelOBP2 mRNA. Put plainly: RNAi silencing effect on AmelOBP2 mRNA after siRNA feeding (qRT-PCR). It counts as in vivo, Apis mellifera ligustica. Particulars: 8 μg per bee, 20-d-old honeybees. As to the method: Total RNA and cDNA were obtained according to Du et al.. The obtained cDNA was subjected to qRT-PCR using the SYBR fluorescent dye method (Takara, Japan) (Table A1). The primers were synthesized by Sangon Biotech (Table A2). Data processing refers to Livak and Schmittgen (2^−ΔΔCt method).
Honeybees were collected at 20 d of age from an apiary at the College of Animal Science, Shanxi Agricultural University. Honeybees were randomly divided into 4 groups (n = 40) and starved in an incubator for 30 min (65–70% relative humidity; 28 ± 1 °C). Honeybees were fed with siAmelOBP2 (8 μg per bee dissolved in sucrose solution); the siAmelOBP2 are recorded as siAmelOBP2-1 (79 bp) and siAmelOBP2-2 (329 bp). We used siNC and 30% sucrose solution as the controls. After feeding, the honeybees were placed back in the incubator. At 24, 48, 72, and 96 h, the honeybees were captured randomly in each group, and the silencing effect of RNAi was assessed using qRT-PCR.

As usually defined, the Ki is the equilibrium dissociation constant of an inhibitor or competing ligand from its target. Usually IC50 stands for the point on the concentration scale where inhibition reaches its midpoint. Regarding `CC=Cc1ccc(OC)c(OC)c1` [1,2-dimethoxy-4-(1-propenyl)-benzene], in data set [1], the Ki worked out at 7.68 µM and the 50% inhibitory concentration (IC50) stood at 17.2 µM.

For the molecule `CC(C)(C)c1cccc(C(C)(C)C)c1` [1,3-bis (1,1-dimethyl ethyl)-benzene], in data set [1], the inhibition constant (Ki) turned out to be 2.85 µM and the IC50 worked out at 6.37 µM.

As to `Cc1cccc(C)c1` [1,3-dimethyl-benzene], in data set [1], the Ki stood at 11 µM and the IC50 is 24.6 µM.

For `c1ccc(Nc2cccc3ccccc23)cc1` [1-NPN], in data set [2], the Kd came to 2 µM.

For the molecule `C=C(C)c1ccc(C)cc1` [1-methyl-4-(1-methylethenyl)-benzene], in data set [1], the Ki was 6.23 µM and the IC50 was determined as 13.9 µM.

In the case of `CCCCCCCCC=O` [1-nonanal], in data set [1], the Ki was determined as 5.26 µM and the half-maximal inhibitory concentration (IC50) is 11.8 µM. Besides, the “Silencing Efficiency (EAG response)” value in data set [3] is listed as 37.28%.

As for `CC(C)C(=O)OCC(C)(C)C(OC(=O)C(C)C)C(C)C` (centres unmarked) [2,2,4-trimethyl-1,3-pentanediol diisobutyrate], in data set [1], the inhibition constant (Ki) is 4.92 µM and the IC50 was found to be 11 µM.

As for `Cc1ccc(C)c(C=O)c1` [2,5-dimethyl-benzaldehyde], in data set [1], the Ki worked out at 7.12 µM and the IC50 was found to be 15.9 µM.

Take `C=C(C)C1CCC(C)C(=O)C1` (centres unmarked) [2-methyl-5-(1-methylethenyl)-cyclohexanone]: in data set [1], the Ki worked out at 6.03 µM and the IC50 is 13.5 µM. Besides, in data set [3], the “Silencing Efficiency (EAG response)” value is recorded as 32.48%.

As for `C=CC(C)(O)CCC=C(C)C` (centres unmarked) [3,7-dimethyl-1,6-octadien-3-ol], in data set [1], the Ki turned out to be 7.01 µM and the IC50 amounted to 15.7 µM.

Take `CC1=CC(=O)C(C(C)C)CC1` (centres unmarked) [3-methyl-6-(1-methylethyl)-2-cyclohexen-1-one]: in data set [1], the Ki is 11.2 µM and the concentration for half-maximal inhibition (IC50) turned out to be 25 µM.

As for `CCCCCC=CC(C)=O` [3-nonen-2-one], in data set [1], the Ki worked out at 4.3 µM and the IC50 turned out to be 9.63 µM.

Regarding `O=CC=Cc1ccccc1` [3-phenyl-2-propenal], in data set [1], the inhibition constant Ki is 5.69 µM and the IC50 turned out to be 12.7 µM.

For `C=CC(=C)CCCC(=C)C` [alpha-myrcene], in data set [1], the Ki worked out at 2.76 µM and the IC50 came to 6.18 µM.

Turning to `O=Cc1ccccc1` [benzaldehyde], in data set [1], the Ki stood at 3.74 µM and the IC50 was determined as 8.37 µM.

With `O=CCc1ccccc1` [benzeneacetaldehyde], in data set [1], the Ki came to 4.55 µM and the 50% inhibitory concentration (IC50) came to 10.2 µM.

As to `O=CCCc1ccccc1` [benzenepropanal], in data set [1], the Ki was determined as 7.3 µM and the half-maximal inhibitory concentration (IC50) amounted to 16.3 µM.

Take `CCCCCCCCCC=O` [decanal]: in data set [1], the Ki was 3.72 µM and the IC50 stood at 8.32 µM.

Regarding `COC(=O)c1ccccc1C(=O)OC` [dimethyl phthalate], in data set [1], the inhibition constant (Ki) is 5.54 µM and the IC50 came out at 12.4 µM.

As for `CCCCCCCCCCCC=O` [dodecanal], in data set [1], the Ki amounted to 1.05 µM and the IC50 was 2.35 µM.

On to `CCCCCCC/C=C/C=O` [e-2-decenal], for which, in data set [1], the Ki was 2.42 µM and the IC50 came out at 5.41 µM.

On to `CCC/C=C/C=O` [e-2-hexenal], for which, in data set [1], the Ki was found to be 2.83 µM and the IC50 turned out to be 6.33 µM. Besides, the “Silencing Efficiency (EAG response)” value in data set [3] is given as 34.64%.

As to `CCCCC/C=C/C=O` [e-2-octenal], in data set [1], the Ki was found to be 7.45 µM and the concentration for half-maximal inhibition (IC50) worked out at 16.7 µM. Further, in data set [3], the “Silencing Efficiency (EAG response)” value is reported as 55.20%.

As to `CC1=CCC(C(C)C)=CC1` [gamma-terpinene], in data set [1], the Ki worked out at 4.16 µM and the IC50 was 9.31 µM.

For `CCCCCCCCCCCCCCCCCCCCC` [heneicosane], in data set [1], the Ki worked out at 21.7 µM, the “binding ability to AmelOBP2 (in words)” value was “relatively weak binding ability” and the IC50 turned out to be 48.6 µM.

Turning to `CCCCCCCCCCCCCCCCC` [heptadecane], in data set [1], the Ki came out at 16.7 µM and the IC50 was found to be 37.3 µM.

With `CCCCCCCCCCCCCCCC` [hexadecane], in data set [1], the Ki was found to be 30.6 µM, the “binding ability to AmelOBP2 (in words)” value is recorded as “relatively weak binding ability” and the IC50 was determined as 68.6 µM.

As for `CCCCCCCCCCCCCCCC(=O)OCC` [hexadecanoic acid, ethyl ester], in data set [1], the inhibition constant Ki is 12.8 µM, the “binding ability to AmelOBP2 (in words)” value is reported as “exhibited binding ability” and the IC50 is 28.8 µM.

Turning to `Cc1ccccc1` [methyl benzene], in data set [1], the Ki worked out at 8.3 µM and the IC50 was determined as 18.6 µM. In addition, the “Silencing Efficiency (EAG response)” value in data set [3] turned out to be 28.76%.

Take `CCCCCCCCCCCCCCCC(=O)OC` [methyl palmitate]: the “binding ability to AmelOBP2 (in words)” value in data set [1] is given as “exhibited binding ability”.

Take `CCCCCCCCCCCCCCCCCCC` [nonadecane]: in data set [1], the Ki was found to be 14.7 µM and the IC50 amounted to 33 µM.

In the case of `Cc1ccc(C(C)C)cc1` [p-cymene], in data set [1], the Ki came out at 3.58 µM and the half-inhibitory concentration (IC50) was found to be 8.02 µM.

Take `CCCCCCCCCCCCCCCCCCCCCCCC` [tetracosane]: in data set [1], the inhibitory constant (Ki) is 13.2 µM and the IC50 was determined as 29.6 µM.

Regarding `CCCCCCCCCCCCCC` [tetradecane], in data set [1], the Ki was determined as 8.06 µM and the IC50 came out at 18 µM.

As to `CC(=O)/C=C/C1=C(C)CCCC1(C)C` [trans-β-ionone], in data set [1], the Ki stood at 4.21 µM and the IC50 turned out to be 9.43 µM.

For `C=C1CC/C=C(\C)CC[C@@H]2[C@@H]1CC2(C)C` [β-caryophyllene], in data set [1], the inhibition constant (Ki) worked out at 4.84 µM and the concentration for half-maximal inhibition (IC50) stood at 10.8 µM.

Regarding `C=C/C(C)=C/CC=C(C)C` [β-ocimene], in data set [1], the Ki turned out to be 3.75 µM and the IC50 stood at 8.4 µM.

On to hexadecenoic acid, for which, in data set [1], the Ki was 5.29 µM and the IC50 was found to be 11.8 µM.

For phytol, in data set [1], the Ki came out at 16.2 µM and the IC50 is 36.3 µM.

Take “siAmelOBP2-1: siRNA against AmelOBP2 (79 bp); F: GCAAAGUACAUGGAGUAUUTT, R: AAUACUCCAUGUACUUUGCTT (chemistry not given here)”: the “silencing efficiency (AmelOBP2 mRNA)” value in data set [4] (72 h after siRNA feeding) worked out at 62.86%.

Consider “siAmelOBP2-2: siRNA against AmelOBP2 (329 bp); F: GGAUCGCGAAUGAGUGCAUTT, R: AUGCACUCAUUCGCGAUCCTT (chemistry not given here)”, for which the “silencing efficiency (AmelOBP2 mRNA)” value in data set [4] (24 h after siRNA feeding) is 58.87%; in data set [4] (48 h after siRNA feeding) it was 47.35%; in data set [4] (72 h after siRNA feeding), 79.83%; in data set [4] (96 h after siRNA feeding), 67.19%.
